According to patent publication US11028079B2 (ConverGene LLC, priority 2015, dated 2021):

Biological target: T1, BRD4 bromodomains (Homo sapiens, UniProt O60885)
T1 construct: fused on or other part: T7 phage capsid protein (phage-display fusion; the phage DNA is read out by qPCR)
Experiment: BROMOscan bromodomain competition binding assay (DiscoveRx)
Details: Kd from 11 compound concentrations ranging from 0 to 10 μM, read-out: BROMOscan Relative Activity
Outline: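 Compounds in 0.1% DMSO/0.9% MEG competed with a solid-phase acetylated peptide for T7 phage-fused BRD4 bromodomains, with the retained bromodomain measured by qPCR.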

Structure (SMILES) | Kd [nM]
Cc1noc(C)c1-c1ccc2nc(C(=O)NCC3CN(C)C3)cc(NCc3cccc(Cl)c3)c2c1 [Example 231, 4-((3-chlorobenzyl)amino)-6-(3,5-dimethylisoxazol-4-yl)-N-((1-methylazetidin-3-yl)methyl)quinoline-2-carboxamide] | < 500
Cc1noc(C)c1-c1ccc2nc(C(=O)NC3CCS(=O)(=O)CC3)cc(NCc3cccc(Cl)c3)c2c1 [Example 235, 4-((3-chlorobenzyl)amino)-6-(3,5-dimethylisoxazol-4-yl)-N-(1,1-dioxidotetrahydro-2H-thiopyran-4-yl)quinoline-2-carboxamide] | < 500
Cc1cnc(CNC(=O)c2nc(NCc3cccc(Cl)c3)c3cc(-c4c(C)noc4C)ccc3n2)o1 [Example 216, 4-((3-chlorobenzyl)amino)-6-(3,5-dimethylisoxazol-4-yl)-N-((5-methyloxazol-2-yl)methyl)quinazoline-2-carboxamide] | < 500
Cc1noc(C)c1-c1ccc2nc(C(=O)NCc3ccncc3Cl)nc(NCc3cccc(Cl)c3)c2c1 [Example 208, 4-((3-chlorobenzyl)amino)-N-((3-chloropyridin-4-yl)methyl)-6-(3,5-dimethylisoxazol-4-yl)quinazoline-2-carboxamide] | < 500
Cc1noc(C)c1-c1ccc2nc(N3CCN(CC(=O)N(C)C)CC3)nc(NCc3cccc(Cl)c3)c2c1 [Example 52, 2-(4-(4-((3-chlorobenzyl)amino)-6-(3,5-dimethylisoxazol-4-yl)quinazolin-2-yl)piperazin-1-yl)-N,N-dimethylacetamide] | < 500
Cc1noc(C)c1-c1ccc2nc(N3CCN(CC(=O)N(C)C)CC3)nc(NCc3cncc(Cl)c3)c2c1 [Example 119, 2-(4-(4-(((5-chloropyridin-3-yl)methyl)amino)-6-(3,5-dimethylisoxazol-4-yl)quinazolin-2-yl)piperazin-1-yl)-N,N-dimethylacetamide] | < 500
Cc1noc(C)c1-c1ccc2nc(N3CCc4[nH]ncc4C3)nc(N3CCOC[C@@H]3c3ccccc3)c2c1 [Example 282, (S)-4-(6-(3,5-dimethylisoxazol-4-yl)-2-(1,4,6,7-tetrahydro-5H-pyrazolo[4,3-c]pyridin-5-yl)quinazolin-4-yl)-3-phenylmorpholine] | < 500
Cc1noc(C)c1-c1ccc2nc(N3CCN(S(C)(=O)=O)CC3)nc(N3CCOC[C@H]3c3ccccc3)c2c1 [Example 268, (R)-4-(6-(3,5-dimethylisoxazol-4-yl)-2-(4-(methylsulfonyl)piperazin-1-yl)quinazolin-4-yl)-3-phenylmorpholine] | < 500
Cc1noc(C)c1-c1ccc2nc(NCCCO)nc(NCc3cccc(Cl)c3)c2c1 [Example 13, 3-((4-((3-chlorobenzyl)amino)-6-(3,5-dimethylisoxazol-4-yl)quinazolin-2-yl)amino)propan-1-ol] | < 500
Cc1noc(C)c1-c1ccc2nc(-c3cnn(CC(C)(C)O)c3)nc(NCc3cccc(Cl)c3)c2c1 [Example 56, 1-(4-(4-((3-chlorobenzyl)amino)-6-(3,5-dimethylisoxazol-4-yl)quinazolin-2-yl)-1H-pyrazol-1-yl)-2-methylpropan-2-ol] | < 500
CNC(=O)Cn1cc(-c2nc(N3CCOC[C@@H]3c3ccccc3)c3cc(-c4c(C)noc4C)ccc3n2)cn1 [Example 272, (S)-2-(4-(6-(3,5-dimethylisoxazol-4-yl)-4-(3-phenylmorpholino)quinazolin-2-yl)-1H-pyrazol-1-yl)-N-methylacetamide] | < 500
Cc1noc(C)c1-c1ccc2ncnc(N3CCC(C(=O)O)CC3)c2c1 [Example 261, 1-(6-(3,5-dimethylisoxazol-4-yl)quinazolin-4-yl)piperidine-4-carboxylic Acid] | 500 to 5000
Cc1noc(C)c1-c1ccc2nc(N3CCN(CCN(C)C)CC3)nc(Nc3ccc(Cl)cc3)c2c1 [Example 162, N-(4-chlorophenyl)-2-(4-(2-(dimethylamino)ethyl)piperazin-1-yl)-6-(3,5-dimethylisoxazol-4-yl)quinazolin-4-amine] | 500 to 5000
Cc1noc(C)c1-c1ccc2nc(C3=CCNCC3)nc(NCc3cccc(Cl)c3)c2c1 [Example 31, N-(3-chlorobenzyl)-6-(3,5-dimethylisoxazol-4-yl)-2-(1,2,3,6-tetrahydropyridin-4-yl)quinazolin-4-amine] | < 500
Cc1noc(C)c1-c1ccc2c(NCc3cccc(Cl)c3)nc(Cl)nc2c1 [Example 38, 2-chloro-N-(3-chlorobenzyl)-7-(3,5-dimethylisoxazol-4-yl)quinazolin-4-amine] | 500 to 5000
CNC(=O)CN1CCN(c2nc(NCc3cccc(Cl)c3)c3cc(-c4c(C)noc4C)ccc3n2)CC1 [Example 53, 2-(4-(4-((3-chlorobenzyl)amino)-6-(3,5-dimethylisoxazol-4-yl)quinazolin-2-yl)piperazin-1-yl)-N-methylacetamide] | < 500

The next lines start with the values.

Kd [nM] | Structure (SMILES)
< 500 | Cc1noc(C)c1-c1ccc2nc(N3CCCN(CCN(C)C)CC3)nc(NCc3cccc(Cl)c3)c2c1 [Example 32, N-(3-chlorobenzyl)-2-(4-(2-(dimethylamino)ethyl)-1,4-diazepan-1-yl)-6-(3,5-dimethylisoxazol-4-yl)quinazolin-4-amine]
< 500 | Cc1ccncc1NC(=O)c1nc(NCc2cccc(Cl)c2)c2cc(-c3c(C)noc3C)ccc2n1 [Example 220, 4-((3-chlorobenzyl)amino)-6-(3,5-dimethylisoxazol-4-yl)-N-(4-methylpyridin-3-yl)quinazoline-2-carboxamide]
< 500 | Cc1noc(C)c1-c1ccc2nc(-c3cnn(CC(C)(C)O)c3)nc(N3CCN(S(C)(=O)=O)C[C@@H]3c3ccccc3)c2c1 [Example 310, (S)-1-(4-(6-(3,5-dimethylisoxazol-4-yl)-4-(4-(methylsulfonyl)-2-phenylpiperazin-1-yl)quinazolin-2-yl)-1H-pyrazol-1-yl)-2-methylpropan-2-ol]
< 500 | Cc1noc(C)c1-c1ccc2nc(N3CCc4c(ncn4C)C3)nc(N3CCOC[C@@H]3c3ccccc3)c2c1 [Example 328, (S)-4-(6-(3,5-dimethylisoxazol-4-yl)-2-(1-methyl-1,4,6,7-tetrahydro-5H-imidazo[4,5-c]pyridin-5-yl)quinazolin-4-yl)-3-phenylmorpholine]
500 to 5000 | Cc1noc(C)c1-c1ccc2nc(N3CCN(CCN(C)C)CC3)nc(N3CCC(C(=O)O)CC3)c2c1 [Example 254, 1-(2-(4-(2-(dimethylamino)ethyl)piperazin-1-yl)-6-(3,5-dimethylisoxazol-4-yl)quinazolin-4-yl)piperidine-4-carboxylic acid]
< 500 | Cc1noc(C)c1-c1ccc2nc(-c3cnn(CC(=O)N(C)C)c3)nc(NCc3cccc(Cl)c3)c2c1 [Example 98, 2-(4-(4-((3-chlorobenzyl)amino)-6-(3,5-dimethylisoxazol-4-yl)quinazolin-2-yl)-1H-pyrazol-1-yl)-N,N-dimethylacetamide]
> 5000 | CN(C)CCN1CCN(c2nc(NCc3cccc(Cl)c3)c3cc(Br)ccc3n2)CC1 [Example 19, 6-bromo-N-(3-chlorobenzyl)-2-(4-(2-(dimethylamino)ethyl)piperazin-1-yl)quinazolin-4-amine]
500 to 5000 | Cc1noc(C)c1-c1ccc2nc(N3CCCCC3CO)nc(NCc3cccc(Cl)c3)c2c1 (stereo not drawn) [Example 25, (1-(4-((3-chlorobenzyl)amino)-6-(3,5-dimethylisoxazol-4-yl)quinazolin-2-yl)piperidin-2-yl)methanol]
